This note sets out measurements from ChEMBL document CHEMBL5291721, “A preclinical secondary pharmacology resource illuminates target-adverse drug reaction associations of marketed drugs” (Nat Commun, 2023).

What is called AC50 is the concentration at which the activity in the assay is half-maximal.

Data set [1] deals with Adenosine receptor A2a (Homo sapiens, UniProt P29274).
The target in data set [2] is T1, Alpha-1A adrenergic receptor (Homo sapiens, UniProt P35348).
T1 sequence (P35348 whole entry): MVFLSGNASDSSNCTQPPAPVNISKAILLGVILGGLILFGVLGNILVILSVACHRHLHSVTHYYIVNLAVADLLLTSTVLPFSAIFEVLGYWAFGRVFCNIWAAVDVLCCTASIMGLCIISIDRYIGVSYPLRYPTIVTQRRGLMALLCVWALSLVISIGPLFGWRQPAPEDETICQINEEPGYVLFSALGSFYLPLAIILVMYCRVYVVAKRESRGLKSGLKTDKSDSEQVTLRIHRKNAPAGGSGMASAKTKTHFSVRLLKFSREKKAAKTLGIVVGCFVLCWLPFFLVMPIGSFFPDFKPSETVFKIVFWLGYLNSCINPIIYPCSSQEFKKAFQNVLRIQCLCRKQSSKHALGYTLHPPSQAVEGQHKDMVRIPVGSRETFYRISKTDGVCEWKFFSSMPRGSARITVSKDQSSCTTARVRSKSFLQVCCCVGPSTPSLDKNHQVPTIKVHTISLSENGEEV
Type of data set: functional, cell-based.

Data set [3] addresses T2, Type-1 angiotensin II receptor (Homo sapiens, UniProt P30556).
T2 sequence (P30556 whole entry): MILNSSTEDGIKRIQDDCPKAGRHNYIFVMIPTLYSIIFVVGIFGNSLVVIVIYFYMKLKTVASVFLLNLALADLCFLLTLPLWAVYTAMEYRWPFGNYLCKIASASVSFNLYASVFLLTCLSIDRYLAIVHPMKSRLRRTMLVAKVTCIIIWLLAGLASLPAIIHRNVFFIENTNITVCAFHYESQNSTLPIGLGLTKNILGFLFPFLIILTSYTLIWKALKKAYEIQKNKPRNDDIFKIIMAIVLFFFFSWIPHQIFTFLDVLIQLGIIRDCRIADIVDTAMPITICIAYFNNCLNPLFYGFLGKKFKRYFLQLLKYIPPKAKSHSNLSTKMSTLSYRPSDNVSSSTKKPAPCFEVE

The target in data set [4] is Gamma-aminobutyric acid receptor subunit alpha-1 (Rattus norvegicus, UniProt P62813).
Gamma-aminobutyric acid receptor subunit alpha-1, sequence (P62813 whole entry): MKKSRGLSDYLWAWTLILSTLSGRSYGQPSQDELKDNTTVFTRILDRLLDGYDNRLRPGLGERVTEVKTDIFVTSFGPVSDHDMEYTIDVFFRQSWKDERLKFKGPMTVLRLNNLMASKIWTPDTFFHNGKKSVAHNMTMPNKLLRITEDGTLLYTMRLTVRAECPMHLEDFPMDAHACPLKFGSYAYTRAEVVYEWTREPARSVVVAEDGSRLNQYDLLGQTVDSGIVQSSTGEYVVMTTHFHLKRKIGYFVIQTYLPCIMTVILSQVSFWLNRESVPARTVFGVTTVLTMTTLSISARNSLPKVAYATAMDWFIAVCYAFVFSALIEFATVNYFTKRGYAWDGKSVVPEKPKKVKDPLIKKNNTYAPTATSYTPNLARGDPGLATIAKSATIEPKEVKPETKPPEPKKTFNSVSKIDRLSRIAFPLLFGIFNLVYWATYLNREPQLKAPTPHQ
Data set [5] addresses T3, 5-hydroxytryptamine receptor 3A (Homo sapiens, UniProt P46098).
T3 sequence (P46098 whole entry): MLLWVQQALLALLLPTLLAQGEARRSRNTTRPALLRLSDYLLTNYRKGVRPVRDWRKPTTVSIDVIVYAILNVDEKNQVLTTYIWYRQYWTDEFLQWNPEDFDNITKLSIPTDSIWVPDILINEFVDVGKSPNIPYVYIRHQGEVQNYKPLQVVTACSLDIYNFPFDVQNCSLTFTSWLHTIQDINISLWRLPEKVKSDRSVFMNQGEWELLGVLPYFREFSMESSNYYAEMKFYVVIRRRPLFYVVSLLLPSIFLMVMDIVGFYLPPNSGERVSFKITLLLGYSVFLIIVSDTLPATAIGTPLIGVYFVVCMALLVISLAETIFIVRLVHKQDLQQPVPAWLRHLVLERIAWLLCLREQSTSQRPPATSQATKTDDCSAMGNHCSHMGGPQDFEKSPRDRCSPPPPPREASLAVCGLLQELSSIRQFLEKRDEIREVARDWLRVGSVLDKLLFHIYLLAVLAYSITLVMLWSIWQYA
In kind it is functional.

The target of data set [6] is Voltage-gated inwardly rectifying potassium channel KCNH2 (Homo sapiens, UniProt Q12809). In kind it is functional.
Voltage-gated inwardly rectifying potassium channel KCNH2, sequence (Q12809 whole entry): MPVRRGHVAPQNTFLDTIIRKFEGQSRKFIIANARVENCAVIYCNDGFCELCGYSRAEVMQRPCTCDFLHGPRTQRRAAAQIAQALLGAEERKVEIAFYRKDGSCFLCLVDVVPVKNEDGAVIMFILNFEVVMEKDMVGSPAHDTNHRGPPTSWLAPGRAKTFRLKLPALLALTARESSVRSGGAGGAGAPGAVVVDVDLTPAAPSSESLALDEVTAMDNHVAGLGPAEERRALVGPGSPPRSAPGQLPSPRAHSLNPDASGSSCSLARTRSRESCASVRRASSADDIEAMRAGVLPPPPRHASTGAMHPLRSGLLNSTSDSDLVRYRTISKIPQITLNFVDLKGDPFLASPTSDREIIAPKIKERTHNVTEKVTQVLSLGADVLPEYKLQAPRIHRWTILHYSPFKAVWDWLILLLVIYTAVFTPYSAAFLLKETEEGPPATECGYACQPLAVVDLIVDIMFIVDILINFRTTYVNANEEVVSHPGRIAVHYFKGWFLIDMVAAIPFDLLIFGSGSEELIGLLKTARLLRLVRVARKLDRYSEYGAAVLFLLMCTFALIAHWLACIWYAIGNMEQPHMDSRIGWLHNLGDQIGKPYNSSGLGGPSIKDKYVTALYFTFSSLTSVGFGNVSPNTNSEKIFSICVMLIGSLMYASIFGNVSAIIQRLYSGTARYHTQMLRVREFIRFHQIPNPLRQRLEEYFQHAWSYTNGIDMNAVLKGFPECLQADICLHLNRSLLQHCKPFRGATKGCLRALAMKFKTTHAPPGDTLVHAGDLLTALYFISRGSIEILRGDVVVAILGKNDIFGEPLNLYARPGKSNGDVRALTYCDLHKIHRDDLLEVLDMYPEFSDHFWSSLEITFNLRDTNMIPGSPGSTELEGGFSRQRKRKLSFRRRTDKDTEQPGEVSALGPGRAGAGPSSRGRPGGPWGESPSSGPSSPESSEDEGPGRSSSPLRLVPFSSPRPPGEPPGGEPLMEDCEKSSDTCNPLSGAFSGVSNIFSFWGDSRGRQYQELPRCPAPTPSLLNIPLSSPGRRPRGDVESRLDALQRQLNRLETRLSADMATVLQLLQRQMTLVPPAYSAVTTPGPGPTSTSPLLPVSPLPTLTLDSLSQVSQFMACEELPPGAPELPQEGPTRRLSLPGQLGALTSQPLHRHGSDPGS
Data set [7] addresses T4, Equilibrative nucleoside transporter 1 (Homo sapiens, UniProt Q99808).
T4 sequence (Q99808 whole entry): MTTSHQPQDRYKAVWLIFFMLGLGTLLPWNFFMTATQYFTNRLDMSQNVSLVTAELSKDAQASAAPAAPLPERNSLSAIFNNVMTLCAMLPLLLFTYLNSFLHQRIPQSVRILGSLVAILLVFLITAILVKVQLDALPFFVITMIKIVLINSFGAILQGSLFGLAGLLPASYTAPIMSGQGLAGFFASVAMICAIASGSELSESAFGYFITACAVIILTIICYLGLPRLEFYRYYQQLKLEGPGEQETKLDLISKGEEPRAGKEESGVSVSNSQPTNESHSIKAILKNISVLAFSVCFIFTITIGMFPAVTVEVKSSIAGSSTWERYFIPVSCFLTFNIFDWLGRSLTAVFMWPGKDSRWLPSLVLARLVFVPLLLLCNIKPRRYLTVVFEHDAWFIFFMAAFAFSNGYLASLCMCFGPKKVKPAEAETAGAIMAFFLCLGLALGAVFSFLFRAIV

In data set [8] the target is Sodium-dependent noradrenaline transporter (Homo sapiens, UniProt P23975).
Sodium-dependent noradrenaline transporter, sequence (P23975 whole entry): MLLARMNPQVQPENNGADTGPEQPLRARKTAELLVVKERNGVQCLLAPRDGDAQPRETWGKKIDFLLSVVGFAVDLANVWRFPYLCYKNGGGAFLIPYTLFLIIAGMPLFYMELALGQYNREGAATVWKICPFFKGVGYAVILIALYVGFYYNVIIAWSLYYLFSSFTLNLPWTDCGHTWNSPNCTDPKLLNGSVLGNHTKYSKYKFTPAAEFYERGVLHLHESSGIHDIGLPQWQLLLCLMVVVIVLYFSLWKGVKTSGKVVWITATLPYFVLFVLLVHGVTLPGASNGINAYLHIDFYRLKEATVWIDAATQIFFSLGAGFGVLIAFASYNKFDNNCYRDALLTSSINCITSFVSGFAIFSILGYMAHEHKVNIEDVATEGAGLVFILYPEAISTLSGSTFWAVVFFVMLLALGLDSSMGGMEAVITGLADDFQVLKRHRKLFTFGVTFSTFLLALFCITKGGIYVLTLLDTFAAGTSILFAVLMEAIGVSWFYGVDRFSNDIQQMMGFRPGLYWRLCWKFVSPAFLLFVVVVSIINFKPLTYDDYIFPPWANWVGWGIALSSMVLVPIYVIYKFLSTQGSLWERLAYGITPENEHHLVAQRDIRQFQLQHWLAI
Further: assay procedure not described here.

Adenosine receptor A2a, sequence (P29274 whole entry): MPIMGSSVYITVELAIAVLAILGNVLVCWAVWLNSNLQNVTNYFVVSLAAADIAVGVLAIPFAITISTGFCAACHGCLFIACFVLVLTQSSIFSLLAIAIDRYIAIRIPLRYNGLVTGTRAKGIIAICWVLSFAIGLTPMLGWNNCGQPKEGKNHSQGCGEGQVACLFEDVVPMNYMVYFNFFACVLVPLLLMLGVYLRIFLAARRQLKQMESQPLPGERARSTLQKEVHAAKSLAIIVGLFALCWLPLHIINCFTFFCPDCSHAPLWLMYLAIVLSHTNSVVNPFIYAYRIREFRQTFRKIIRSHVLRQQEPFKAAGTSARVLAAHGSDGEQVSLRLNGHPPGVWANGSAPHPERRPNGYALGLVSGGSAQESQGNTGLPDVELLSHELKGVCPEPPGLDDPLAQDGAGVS

Consider `C=C[C@@]1(C)CC(=O)[C@]2(O)[C@@]3(C)[C@@H](O)CCC(C)(C)[C@@H]3[C@H](OC(=O)CCN(C)C)[C@H](OC(C)=O)[C@@]2(C)O1`, for which the AC50 in data set [1] was above 30 µM; in data set [2], 8.3 µM; in data set [3], above 30 µM; in data set [4], above 30 µM; in data set [5], above 30 µM; in data set [6] (read-out: AC50), 7.8 µM. The AC50 in data set [7] and in data set [8] was above 30 µM throughout.
Regarding `NCCCC(O)(P(=O)(O)O)P(=O)(O)O` [ALENDRONIC ACID], the AC50 is above 30 µM in data set [1]; above 30 µM in data set [3]; above 10 µM in data set [4]; above 10 µM in data set [5]; above 30 µM in data set [7].
Turning to `Nc1ccc(C(=O)O)c(O)c1` [AMINOSALICYLIC ACID], the AC50 in data set [1], in data set [2], in data set [3], in data set [4], in data set [5] and in data set [6] (read-out: AC50) was above 30 µM throughout. The AC50 in data set [8] was above 30 µM.
Regarding `NS(=O)(=O)c1cc2c(cc1C(F)(F)F)NC(Cc1ccccc1)NS2(=O)=O` (stereo unspecified) [BENDROFLUMETHIAZIDE], the AC50 was above 10 µM in data set [1]; above 10 µM in data set [3]; above 10 µM in data set [4]; above 30 µM in data set [5]; above 30 µM in data set [6] (read-out: AC50); above 30 µM in data set [7]. Also, the half-maximal activity concentration (AC50) in data set [8] is above 30 µM.
For the compound `COc1cc(OC)c(C(=O)CCCN2CCCC2)c(OC)c1` [BUFLOMEDIL], the AC50 in data set [1] is above 30 µM; in data set [2], above 30 µM; in data set [3], above 30 µM; in data set [4], above 30 µM; in data set [5], above 30 µM; in data set [6] (read-out: AC50), 2.6 µM. For the same compound, the AC50 in data set [7] and in data set [8] was above 30 µM each time.
Take `CCCCCCNC(=O)n1cc(F)c(=O)[nH]c1=O` [CARMOFUR]: the AC50 in data set [1], in data set [3], in data set [4], in data set [5], in data set [6] (read-out: AC50) and in data set [7] was above 30 µM in each case. Moreover, the AC50 in data set [8] is above 30 µM.
In the case of `COCCOC(=O)C1=C(C)NC(C)=C(C(=O)OC/C=C/c2ccccc2)C1c1cccc([N+](=O)[O-])c1` (stereo unspecified) [CILNIDIPINE], the AC50 in data set [1], in data set [2], in data set [3], in data set [4], in data set [5] and in data set [6] (read-out: AC50) was above 30 µM in each case. In addition, the AC50 in data set [7] was 26 µM; in data set [8], above 30 µM.
As for `CC(C)(C)NCC(O)c1cc(Cl)c(N)c(Cl)c1` (stereo unspecified) [CLENBUTEROL], the AC50 in data set [1], in data set [2], in data set [3], in data set [4], in data set [5] and in data set [6] (read-out: AC50) was above 30 µM throughout. Moreover, the figures for the AC50 in data set [7] and in data set [8] were above 30 µM and 27.9 µM, respectively.
For `COc1cccc2c1C(=O)c1c(O)c3c(c(O)c1C2=O)C[C@@](O)(C(C)=O)C[C@@H]3O[C@H]1C[C@H](N)[C@H](O)[C@H](C)O1` [DAUNORUBICIN], the AC50 in data set [1] is 30 µM; in data set [3] it was above 30 µM; in data set [4] it was above 30 µM; in data set [5], 12.8 µM; in data set [6] (read-out: AC50), above 30 µM; in data set [7], 14.3 µM. The compound further registered an AC50 in data set [8] of 10.4 µM.
`C[C@@H]1C[C@H]2[C@@H]3C[C@H](F)C4=CC(=O)C=C[C@]4(C)[C@@]3(F)[C@@H](O)C[C@]2(C)[C@H]1C(=O)CO` [DIFLUCORTOLONE] returned an AC50 in data set [8] above 30 µM.
With `CC1(C)C(/C=C/C=C/C=C/C=C2\N(CCCCS(=O)(=O)O)c3ccc4ccccc4c3C2(C)C)=[N+](CCCCS(=O)(=O)[O-])c2ccc3ccccc3c21` [INDOCYANINE GREEN ACID FORM], the AC50 in data set [1] is above 30 µM; in data set [2], above 30 µM; in data set [3] it was 9 µM; in data set [5], 13 µM; in data set [6] (read-out: AC50) it was 6.5 µM; in data set [7] it was 11 µM. This compound gave a concentration at half-maximal activity (AC50) in data set [8] of 5.2 µM.
In the case of `O=C1Nc2ccc(Cl)cc2C(c2ccccc2)=NC1O` (stereo unspecified) [OXAZEPAM], the AC50 was above 30 µM in data set [1]; above 30 µM in data set [2]; above 30 µM in data set [3]; above 10 µM in data set [4]; above 10 µM in data set [5]; above 30 µM in data set [7]. This compound displayed an AC50 in data set [8] above 10 µM.
On to `CC[N+]1(C)CCCC(OC(=O)C(O)(c2ccccc2)c2ccccc2)C1` (stereo unspecified) [PIPENZOLATE], for which the AC50 was above 30 µM in data set [1]; above 30 µM in data set [3]; above 30 µM in data set [4]; above 30 µM in data set [5]; 0.97 µM in data set [6] (read-out: AC50); above 30 µM in data set [8].
As to `C[n+]1ccccc1/C=N/O` [PRALIDOXIME], the AC50 in data set [2], in data set [4], in data set [5] and in data set [6] (read-out: AC50) was above 30 µM in each case.
Regarding `CN1CCN(c2c(F)cc3c(=O)c(C(=O)O)cn4c3c2SCC4)CC1` [RUFLOXACIN], the AC50 in data set [1], in data set [2], in data set [3], in data set [4], in data set [5] and in data set [6] (read-out: AC50) was above 30 µM throughout.
As to `CC(C)CC(N(C)C)C1(c2ccc(Cl)cc2)CCC1` (stereo unspecified) [SIBUTRAMINE], the AC50 is above 30 µM in data set [1]; above 30 µM in data set [2]; above 30 µM in data set [3]; above 10 µM in data set [4]; above 30 µM in data set [5]; 8.34 µM in data set [6] (read-out: AC50). Besides, the AC50 in data set [7] is above 30 µM.
For the compound `COc1c(O[C@@H]2O[C@H](CO)[C@@H](O)[C@H](O)[C@H]2O)cc2c(c1OC)-c1ccc(SC)c(=O)cc1[C@@H](NC(C)=O)CC2` [THIOCOLCHICOSIDE], the AC50 in data set [1] was above 30 µM; in data set [2], above 30 µM; in data set [3], above 30 µM; in data set [4], 6.2 µM; in data set [5] it was above 30 µM; in data set [6] (read-out: AC50), above 30 µM. Besides, the AC50 in data set [8] is above 30 µM.
With `COc1cc2nccc(Oc3ccc(NC(=O)Nc4cc(C)on4)c(Cl)c3)c2cc1OC` [TIVOZANIB], the AC50 was above 3 µM in data set [1]; above 30 µM in data set [2]; above 1 µM in data set [6] (read-out: AC50); above 3 µM in data set [7]; above 3 µM in data set [8].
With `CN1[C@@H]2CC[C@H]1C[C@@H](OC(=O)c1c[nH]c3ccccc13)C2` [TROPISETRON], the AC50 in data set [1] was above 30 µM; in data set [2], above 30 µM; in data set [3], above 30 µM; in data set [4], above 30 µM; in data set [6] (read-out: AC50) it was 0.95 µM.
Turning to `COc1ccc(C(CN(C)C)C2(O)CCCCC2)cc1` (stereo unspecified) [VENLAFAXINE], the AC50 is above 30 µM in data set [1]; above 30 µM in data set [2]; above 30 µM in data set [3]; above 10 µM in data set [4]; above 30 µM in data set [5]; above 30 µM in data set [6] (read-out: AC50). The compound also showed an AC50 in data set [7] above 30 µM.
As to COLISTIN, the AC50 is above 30 µM in data set [2]; above 30 µM in data set [4]; above 30 µM in data set [5]; above 30 µM in data set [6] (human, cellular components).
